Counter-ions that a name gives are not always drawn.
Molecular target: T1, His-tagged kinase domain of CSF-1R (amino acids 568-912) (Homo sapiens, UniProt P07333)
T1 construct: The His-tagged kinase domain of CSF-1R (i.e., amino acids 568-912, GeneBank ID NM_005211); His; made in house; host or cells: baculovirus infected SF+Express insect cells
T1 sequence (P07333 568-912): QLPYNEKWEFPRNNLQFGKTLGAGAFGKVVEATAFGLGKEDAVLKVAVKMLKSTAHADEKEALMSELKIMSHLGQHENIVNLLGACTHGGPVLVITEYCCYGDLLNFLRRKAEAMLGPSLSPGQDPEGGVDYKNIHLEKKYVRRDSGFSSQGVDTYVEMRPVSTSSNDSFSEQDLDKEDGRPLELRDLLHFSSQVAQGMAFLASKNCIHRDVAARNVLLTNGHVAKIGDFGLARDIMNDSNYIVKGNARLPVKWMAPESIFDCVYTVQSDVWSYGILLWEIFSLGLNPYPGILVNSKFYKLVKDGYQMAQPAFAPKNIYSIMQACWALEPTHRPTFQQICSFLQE
Assay: Assay 1: CSF-1R in vitro AlphaScreen assay
Format: biochemical
Settings: phosphorylation of biotinylated pEY substrate; 0.57 nM CSF-1R, 90 μM ATP
Method: Assay 1: CSF-1R in Vitro AlphaScreen Assay
Activity of purified CSF-1R was determined in vitro using an Amplified Luminescent Proximity Homogeneous Assay (ALPHA)(Perkin Elmer), which measures phosphorylation of the CSF-1R substrate, biotinylated poly-glutamine-tyrosine peptide (PEY-HTRF CisBio 61GT0BLD), as described below. The His-tagged kinase domain of CSF-1R (i.e., amino acids 568-912, GeneBank ID NM_005211; (see page 25 lines 13-19 of WO 2006/067445 for the sequence listing)) was purified from baculovirus infected SF+Express insect cells (1.4×10^6 cells/ml), French pressed and chromatographed through subsequent Qiagen Ni-NTA, Superflow Mono Q HR 10/10, and Superdex 200 SEC columns. Typical yield was 245 μg/l of cell pellet at >95% purity.
The phosphorylation of the CSF-1R substrate in the presence and absence of the compound of interest was determined. Briefly, 0.57 nM of purified CSF-1R, 5 nM pEY substrate, and compound were preincubated in 1× buffer for 30 minutes at 25° C. Reactions were initiated with addition of 90 μM adenosine triphosphate (ATP) in 1× buffer and incubated at 25° C. for 60 minutes and reactions stopped by addition of 5 μl of detection mix consisting of 136 mM NaCl, 102 mM ethylenediamine tetraacetic acid, 1.65 mg/ml BSA, 40 ug/ml Streptavidin donor beads (Perkin Elmer 6760002), 40 ug/ml pTyr100 acceptor beads (Perkin Elmer 6760620). Plates were incubated at 25° C. for 18 hours in the dark. Phosphorylated substrate was detected by an EnVision plate reader (Perkin Elmer) 680 nm excitation, 520-620 nm emission. Data was graphed and IC50s calculated using Excel Fit (Microsoft).

Row | IC50 [nM] | SMILES
1 | < 3 | CCOc1cc2ncc(C(N)=O)c(Nc3ccc(F)cc3F)c2cc1C1=CCNCC1 [Example 39, 4-[(2,4-Difluorophenyl)amino]-7-ethoxy-6-(1,2,3,6-tetrahydropyridin-4-yl)quinoline-3-carboxamide]
2 | 7 | CCOc1cc2ncc(C(N)=O)c(Nc3ccc(F)cc3F)c2cc1C1CCNCC1 [Example 40, 4-[(2,4-Difluorophenyl)amino]-7-ethoxy-6-piperidin-4-ylquinoline-3-carboxamide]
3 | 14 | CCOc1cc2ncc(C(N)=O)c(Nc3ccc(F)cc3F)c2cc1C1=CCN(C(C)=O)CC1 [Example 41, 6-(1-Acetyl-1,2,3,6-tetrahydropyridin-4-yl)-4-[(2,4-difluorophenyl)amino]-7-ethoxyquinoline-3-carboxamide]
4 | 5 | CCOc1cc2ncc(C(N)=O)c(Nc3ccc(C)cc3F)c2cc1C1CCN(C)CC1 [Example 42, 7-Ethoxy-4-[(2-fluoro-4-methylphenyl)amino]-6-(1-methylpiperidin-4-yl)quinoline-3-carboxamide]
5 | < 3.9 | CCOc1cc2ncc(C(N)=O)c(Nc3ccc(F)cc3F)c2cc1C1CCN(C)CC1 [Example 43, 4-[(2,4-Difluorophenyl)amino]-7-ethoxy-6-(1-methylpiperidin-4-yl)quinoline-3-carboxamide]
6 | < 3 | CCOc1cc2ncc(C(N)=O)c(Nc3cccc(Cl)c3F)c2cc1C1CCN(C)CC1 [Example 44, 4-[(3-Chloro-2-fluorophenyl)amino]-7-ethoxy-6-(1-methylpiperidin-4-yl)quinoline-3-carboxamide]
7 | < 3 | CCOc1cc2ncc(C(N)=O)c(Nc3cccc(Cl)c3Cl)c2cc1C1CCN(C)CC1 [Example 45, 4-[(2,3-Dichlorophenyl)amino]-7-ethoxy-6-(1-methylpiperidin-4-yl)quinoline-3-carboxamide]
8 | 18 | CCOc1cc2ncc(C(N)=O)c(Nc3ccc(F)cc3F)c2cc1C1CCN(C(C)C)CC1 [Example 46, 4-[(2,4-Difluorophenyl)amino]-7-ethoxy-6-(1-isopropylpiperidin-4-yl)quinoline-3-carboxamide]
9 | 4 | CCOc1cc2ncc(C(N)=O)c(Nc3ccc(C)cc3F)c2cc1C1CCN(C(C)C)CC1 [Example 47, 7-Ethoxy-4-[(2-fluoro-4-methylphenyl)amino]-6-(1-isopropylpiperidin-4-yl)quinoline-3-carboxamide]
10 | 3 | CCOc1cc2ncc(C(N)=O)c(Nc3cc(C)ccc3F)c2cc1C1CCN(C(C)C)CC1 [Example 48, 7-Ethoxy-4-[(2-fluoro-5-methylphenyl)amino]-6-(1-isopropylpiperidin-4-yl)quinoline-3-carboxamide]
11 | 7 | COc1cc2ncc(C(N)=O)c(Nc3ccc(C)cc3F)c2cc1C1CCN(C)CC1 [Example 49, 4-[(2-Fluoro-4-methylphenyl)amino]-7-methoxy-6-(1-methylpiperidin-4-yl)quinoline-3-carboxamide]
12 | 6 | COc1cc2ncc(C(N)=O)c(Nc3cccc(Cl)c3F)c2cc1C1CCN(C)CC1 [Example 50, 4-[(3-Chloro-2-fluorophenyl)amino]-7-methoxy-6-(1-methylpiperidin-4-yl)quinoline-3-carboxamide]
13 | 10 | COc1cc2ncc(C(N)=O)c(Nc3ccc(F)cc3F)c2cc1C1CCN(C)CC1 [Example 51, 4-[(2,4-Difluorophenyl)amino]-7-methoxy-6-(1-methylpiperidin-4-yl)quinoline-3-carboxamide]
14 | 15 | COc1cc2ncc(C(N)=O)c(Nc3ccc(F)cc3F)c2cc1C1CCN(C(C)=O)CC1 [Example 55, 6-(1-Acetylpiperidin-4-yl)-4-[(2,4-difluorophenyl)amino]-7-methoxyquinoline-3-carboxamide]
15 | 7 | CCOc1cc2ncc(C(N)=O)c(Nc3ccc(F)cc3F)c2cc1-c1ccc(=O)[nH]c1 [Example 59, 4-[(2,4-Difluorophenyl)amino]-7-ethoxy-6-(6-oxo-1,6-dihydropyridin-3-yl)quinoline-3-carboxamide]

Molecular target: T1, His-tagged kinase domain of CSF-1R (amino acids 568-912)
Assay: Assay 2: CSF1R in-vitro AlphaScreen assay
Format: biochemical
Settings: phosphorylation of biotinylated pEY substrate; 0.46 nM CSF-1R, 12 mM ATP mix
Method: Assay 2: CSF1R in-Vitro AlphaScreen Assay
Activity of purified CSF-1R was determined in-vitro using an Amplified Luminescent Proximity Homogeneous Assay (ALPHA) (Perkin Elmer, Mass.), which measures phosphorylation of CSF-1R substrate, biotinylated poly-glutamine-tyrosine peptide (pEY-HTRF CisBio 61GT0BLD), as described below. The His-tagged kinase domain of CSF-1R (i.e., amino acids 568-912, GeneBank ID NM_005211) was purified from baculovirus infected SF+Express insect cells (1.4×10^6 cells/ml), French pressed and chromatographed through subsequent QIAgen Ni-NTA, Superflow Mono Q HR 10/10, and Superdex 200 SEC columns. Typical yield was 322 ug/l of cell pellet at >95% purity. The phosphorylation of the CSF-1R substrate in the presence and absence of the compound of interest was determined. Briefly, 5 ul of Enzyme/Substrate/adenosine triphosphate (ATP) mix consisting of 0.46 nM of purified CSF-1R, 12 nM pEY substrate, and 12 mM ATP in 1.2× buffer was preincubated with 2 ul of compound for 20 minutes at 25° C. Reactions were initiated with 5 ul of Metal mix consisting of 24 mM MgCl2 in 1.2× buffer and incubated at 25° C. for 90 minutes and reactions were stopped by addition of 5 ul of Detection mix consisting of 20 mM HEPES, 102 mM ethylenediamine tetraacetic acid, 1.65 mg/ml BSA, 136 mM NaCl, 40 ug/ml Streptavidin donor beads (Perkin Elmer, Mass., Catalog #6760002), and 40 ug/ml phosphotyrosine-specific antibody coated acceptor beads (Perkin Elmer, Mass., Catalog #6760620). Plates were incubated at 25° C. for 18 hours in the dark. Phosphorylated substrate was detected by an EnVision plate reader (Perkin Elmer) 680 nm excitation, 520-620 nm emission. Data was graphed and IC50s calculated using Excel Fit (Microsoft). […] For example the following results were obtained in an assay substantially similar to one or other of the assays described hereinabove: […]

Row | IC50 [nM] | SMILES
16 | 22 | CCOc1cc2ncc(C(N)=O)c(Nc3ccc(F)cc3F)c2cc1C1CCN(C(C)C)CC1 [Example 46, 4-[(2,4-Difluorophenyl)amino]-7-ethoxy-6-(1-isopropylpiperidin-4-yl)quinoline-3-carboxamide]
17 | 14 | COc1cc2ncc(C(N)=O)c(Nc3ccc(C)cc3F)c2cc1C1CCN(C(C)C)CC1 [Example 52, 4-[(2-Fluoro-4-methylphenyl)amino]-6-(1-isopropylpiperidin-4-yl)-7-methoxyquinoline-3-carboxamide]
18 | 32 | COc1cc2ncc(C(N)=O)c(Nc3ccc(F)cc3F)c2cc1C1CCN(C(C)C)CC1 [Example 53, 4-[(2,4-Difluorophenyl)amino]-6-(1-isopropylpiperidin-4-yl)-7-methoxyquinoline-3-carboxamide]
19 | 8 | COc1cc2ncc(C(N)=O)c(Nc3cccc(Cl)c3F)c2cc1C1CCN(C(C)C)CC1 [Example 54, 4-[(3-Chloro-2-fluorophenyl)amino]-6-(1-isopropylpiperidin-4-yl)-7-methoxyquinoline-3-carboxamide]
20 | 30 | CCOc1cc2ncc(C(N)=O)c(Nc3ccc(C)cc3F)c2cc1C1CCN(C(C)=O)CC1 [Example 56, 6-(1-Acetylpiperidin-4-yl)-7-ethoxy-4-[(2-fluoro-4-methylphenyl)amino]quinoline-3-carboxamide]
21 | 71 | CCOc1cc2ncc(C(N)=O)c(Nc3ccc(C)cc3F)c2cc1C1CCN(C(=O)CCOC)CC1 [Example 57, 7-Ethoxy-4-[(2-fluoro-4-methylphenyl)amino]-6-[1-(3-methoxypropanoyl)piperidin-4-yl]quinoline-3-carboxamide]
22 | 52 | CCOc1cc2ncc(C(N)=O)c(Nc3ccc(C)cc3F)c2cc1C1CCN(C(=O)[C@@H](C)O)CC1 [Example 58, 7-Ethoxy-4-[(2-fluoro-4-methylphenyl)amino]-6-{1-[(2R)-2-hydroxypropanoyl]piperidin-4-yl}quinoline-3-carboxamide]
23 | 4 | COc1cc2ncc(C(N)=O)c(Nc3ccc(C)cc3F)c2cc1C1CCN(CCO)CC1 [Example 60, 4-[(2-Fluoro-4-methylphenyl)amino]-6-[1-(2-hydroxyethyl)piperidin-4-yl]-7-methoxyquinoline-3-carboxamide hydrochloride]

— patent US20090270450A1, “CHEMICAL COMPOUNDS” (ASTRAZENECA AB, priority 2006, published 2009)
